Data on one molecule can be found in patent US20110091531A1, “Cooling Composition” (GIV AUDAN SA, priority 2008, published 2011).

This data set in a line: Solubility of Evercool 180 alone in solvent under regular conditions. Type of data set: physicochemical.

Structures are written as SMILES.

Consider `CC(C)[C@@H]1CC[C@@H](C)C[C@H]1C(=O)Nc1ccc(CC#N)cc1` [Evercool™ 180, (1R,2S,5R)—N-(4-(cyanomethyl)phenyl)-2-isopropyl-5-methylcyclohexane-carboxamide], for which the Soluble in menthol (at 65° C. under regular conditions) stood at 17%. The “Soluble in peppermint oil” value (at room temperature under regular conditions) is recorded as 12%. Further, the “Solubility in Orange oil (1× Brazilian)” value (under regular conditions) is over 1%.
